Patent publication US20260048046A1, “METHOD FOR IMPROVING GROWTH PERFORMANCE IN FEEDLOT CATTLE” (Elanco US Inc., priority 2022, published 2026)
Marks after values point to notes of the source that are not given here.

Tested on: beef feedlot cattle
Assay: 56-d study: carcass characteristics
Type: in vivo
Parameters: Marbling score, difference from control: scale not given here
Details: for YG 1, proportion of cattle graded / YG 2, proportion of cattle graded / YG 3, proportion of cattle graded / YG 4, proportion of cattle graded / YG 5, proportion of cattle graded: arithmetic mean; for Adjusted fat thickness / Dressing percentage / KPH fat / Ribeye Area / Yield grade / carcass weight (HCW) / Marbling score: 56 d treatment, steers, LS mean; for Marbling score: 400 Small, 500 Modest, 600 Moderate
Procedure: LUB was removed from feed at least 24 h before harvest to comply with the Food Use Authorization (FDA, 2016) granted by the FDA. Cattle were loaded for harvest shortly after collection of final pen live weights and transported to the slaughter facility at a stocking density of approximately 30 steers (i.e., half a pen of 60 steers) in one semi-trailer. The slaughter process was conducted in accordance with USDA requirements and standard slaughter site procedures. Animal/carcass identification was maintained by sequentially recording the ear tag numbers of cattle as they were slaughtered via a sequence number affixed to each carcass by trained personnel from the Beef Carcass Research Center (BCRC; West Texas A&M University, Canyon, TX) and correlating the individual ear tag number to the plant-assigned carcass ID number, which remained intact throughout the carcass data/sample collection phase. Following an industry-standard dressing procedure, each carcass was weighed for determination of HCW.
Carcass evaluation occurred following the commercial plant's standard chilling period. The carcass quality and yield grade factors, marbling score, ribeye area, and objective 12th rib fat thickness were captured objectively using the VBG2000 camera system. Additionally, adjusted 12th rib fat thickness, kidney, pelvic, and heart (KPH) fat assessment, and other defects (dark cutters, blood splash, etc.) were recorded by trained personnel (BCRC). Skeletal maturity was obtained only on carcasses that were “B” maturity or greater, otherwise, skeletal, lean, and overall maturity and lean color were not obtained.
Carcass defects (dark cutters, excessive trim) were noted by exception. The objective fat thickness was used to calculate the USDA yield grade. All carcasses were considered to be less than 30 mo of age; therefore, USDA quality grade was determined by using marbling score (USDA, 2019). The severity of the dark cutting condition was indicated by assigning the dark cutting carcasses to ⅓, ⅔, or full dark categories. Dark cutters were not excluded when determining quality grade, however, a summary of the frequency of dark cutter carcasses by treatment group is provided. Carcasses identified as excessively trimmed (greater than approximately 9.1 kg trim) were not excluded from the analysis, however, a summary of the frequency of excessively trimmed carcasses by treatment group is provided.
The label claim variable of cumulative NH3 gas emissions over the treatment period normalized by final BW (with d −59 BW as a covariate) for the period and HCW (g of gas kg^−1 of BW or g of gas kg^−1 HCW) was determined by utilizing NH3 gas emissions equations developed from the LUB clinical effectiveness study (FDA-FOI, 2018) and validated using animals of similar BW as described by Brown et al. (2019). The pen was the experimental unit for each outcome. Differences were deemed significant using a two-sided test at Ptrt≤0.05, however, a less stringent significance threshold of Ptrt≤0.10 was used for abnormal health observations. Fixed effect of treatment and random effects of time replicate and block within time replicate were included in the model. Discrete variables were analyzed using a generalized linear mixed model, Proc GLIMMIX SAS version 9.4 unless there were convergence problems due to sparseness of data. A binomial distribution was assumed and a logit link used in the analysis. Contrasts were constructed between the CON group and each non-CON dosage group, and differences were deemed significant at Pdose≤0.05. If convergence problems arose due to sparseness of data, Fisher's exact test (binomial data; Proc FREQ in SAS) or Wilcoxon's rank-sum test (categorical data; Proc NARIWAY in SAS) was used to evaluate differences between the CON group and the non-CON dosage groups. In all cases except for health observations, differences were deemed significant at Ptrt≤0.05 for these primary discrete variables. […]

[1] = 3.5 and 5.5 mg kg^−1 LUB groups, 56 d, Ptrt≤0.05
[2] = all LUB groups, 56 d, Ptrt≤0.05

## CC(C)(Cc1ccc(Oc2ncccc2C#N)cc1)NC[C@H](O)COc1ccccc1-c1cccs1 [LUB, 2-{4-[2-({(2S)-2-Hydroxy-3-[2-(2-thienyl)phenoxy]propyl}amino)-2-methylpropyl]phenoxy}nicotinonitrile]
1.5 mg kg^−1 LUB group, 56 d
  Frequency of dark cutter carcasses: 0.6%
  Frequency of excessively trimmed carcasses: 1.4%
1.5 mg·kg^−1 DM LUB, 56 d
  YG 1, proportion of cattle graded: 5.4%
  YG 2, proportion of cattle graded: 25.8^x %
  YG 3, proportion of cattle graded: 49.0%
  YG 4, proportion of cattle graded: 17.1^y %
  YG 5, proportion of cattle graded: 2.7%
1.5 mg·kg^−1 vs. control, 56 d
  KPH fat, difference from control: 0.01%
  Marbling score, difference from control: −13.0
  Marbling score, percent change from Control: −2.8%
  Ribeye area, difference from control: 3.3 cm^2
  Ribeye area, percent change from Control: 3.5%
  carcass weight (HCW), difference from control: 11.3 kg
  carcass weight (HCW), percent change from Control: 2.8%
3.5 mg kg^−1 LUB group, 56 d
  Frequency of dark cutter carcasses: 0.3%
  Frequency of excessively trimmed carcasses: 1.8%
3.5 mg·kg^−1 DM LUB, 56 d
  YG 1, proportion of cattle graded: 5.5%
  YG 2, proportion of cattle graded: 31.5^y %
  YG 3, proportion of cattle graded: 44.0%
  YG 4, proportion of cattle graded: 17.3^y %
  YG 5, proportion of cattle graded: 1.7%
3.5 mg·kg^−1 vs. control, 56 d
  KPH fat, difference from control: 0.01%
  Marbling score, difference from control: −23.0
  Marbling score, percent change from Control: −4.9%
  Ribeye area, difference from control: 5.4 cm^2
  Ribeye area, percent change from Control: 5.8%
  carcass weight (HCW), difference from control: 15.9 kg
  carcass weight (HCW), percent change from Control: 3.9%
5.5 mg kg^−1 LUB group, 56 d
  Frequency of dark cutter carcasses: 0.1%
  Frequency of excessively trimmed carcasses: 1.4%
5.5 mg·kg^−1 DM LUB, 56 d
  YG 1, proportion of cattle graded: 6.2%
  YG 2, proportion of cattle graded: 31.6^y %
  YG 3, proportion of cattle graded: 44.2%
  YG 4, proportion of cattle graded: 16.0^y %
  YG 5, proportion of cattle graded: 2.0%
5.5 mg·kg^−1 vs. control, 56 d
  KPH fat, difference from control: 0.03%
  Marbling score, difference from control: −27.0
  Marbling score, percent change from Control: −5.7%
  Ribeye area, difference from control: 5.7 cm^2
  Ribeye area, percent change from Control: 6.1%
  carcass weight (HCW), difference from control: 17.1 kg
  carcass weight (HCW), percent change from Control: 4.2%
[1]
  Proportion of carcasses grading Select compared to CON: increased
  Yield grade 2 compared to CON: increased
LUB 1.5 mg·kg^−1 DM
  Adjusted fat thickness: 1.53 cm
  Dressing percentage: 61.8%
  KPH fat: 2.12%
  Ribeye Area: 97.0 cm^2
  Yield grade: 3.14
  carcass weight (HCW): 418.3 kg
  Marbling score: 460
LUB 3.5 mg·kg^−1 DM
  Adjusted fat thickness: 1.48 cm
  Dressing percentage: 62.1%
  KPH fat: 2.12%
  Ribeye Area: 99.1 cm^2
  Yield grade: 3.02
  carcass weight (HCW): 423.9 kg
  Marbling score: 450
LUB 5.5 mg·kg^−1 DM
  Adjusted fat thickness: 1.48 cm
  Dressing percentage: 62.3%
  KPH fat: 2.14%
  Ribeye Area: 99.4 cm^2
  Yield grade: 3.01
  carcass weight (HCW): 425.1 kg
[2]
  Proportion of carcasses grading Upper 2/3 Choice compared to CON: decreased
  Yield grade 4 compared to CON: decreased
